This is an account of results in ChEMBL document CHEMBL4680282, “Repurposing of Drugs-The Ketamine Story” (J Med Chem, 2020).

Data set [1] deals with Glutamate NMDA receptor. Put plainly: Displacement of [3H]-MK801 from NMDA receptor in rat brain homogenate. It counts as tissue-based.
Data set [2] has as its target Glutamate NMDA receptor. Nature of the data set: Displacement of [3H]-MK801 from NMDA receptor in rat brain membranes. It counts as cell membranes, Membrane. In general terms: Displacement assays read how much labelled ligand stays bound in the presence of the test substance.
Data set [3] in a line: Cmax in mouse brain at 10 mg/kg, ip measured after 10 mins. It counts as ADME, organism-based. On the set-up: route intraperitoneal, time 10 min, dose 10 mg/kg. As to conditions: in vivo.
Data set [4] is described as follows: Solubility of the compound in water. It counts as physicochemical.
Data set [5] is described as follows: Displacement of [3H]-MK801 from NMDA receptor in dog brain homogenate incubated for 45 mins by liquid scintillation spectrometry. It counts as tissue-based, Canis lupus familiaris.
Data set [6] can be described thus: Displacement of [3H]-MK801 from NMDA receptor in dog cerebral cortex incubated for 45 mins by liquid scintillation spectrometry. It is filed as tissue-based, Canis lupus familiaris.
The target of data set [7] is Glutamate NMDA receptor; Grin1/Grin2b (Rattus norvegicus, UniProt P35439+Q00960). Nature of the data set: Displacement of [3H]-MK801 from rat brain GluN1/GluN2B expressed in HEK293 cells. It is filed as cell-based.
Data set [8] in a line: Oral bioavailability in human. It counts as ADME, organism-based. Particulars: in vivo.
The target in data set [9] is Glutamate NMDA receptor. Put plainly: Displacement of [3H]-MK801 from NMDA receptor in rat striatum incubated for 2 hrs in presence of Mg2+ by scintillation counting method. It counts as tissue-based.
Data set [10] concerns the target Glutamate NMDA receptor. Put plainly: Displacement of [3H]-MK801 from NMDA receptor in rat whole brain homogenate incubated for 2 hrs in presence of Mg2+ by liquid scintillation counting method. It is filed as tissue-based.
Data set [11] deals with Homo sapiens. Put plainly: Anesthetic activity in po dosed human assessed as time duration for onset of action. It is filed as functional.
Data set [12] concerns Homo sapiens. Put plainly: Anesthetic activity in IN dosed human assessed as time duration for onset of action. It is filed as functional.
Data set [13] deals with Glutamate NMDA receptor; GRIN1/GRIN2A (Homo sapiens, UniProt Q05586+Q12879). Put plainly: Displacement of [3H]-MK801 from human forebrain […] expressed in HEK293 cells by […]. It counts as cell-based.
Data set [14] in a line: Bioavailability in SL dosed human. It counts as ADME, organism-based. Particulars: in vivo.
Data set [15] can be described thus: Cmax in human at 2 mg/kg, iv measured after 1 mins. It counts as ADME, organism-based. More on the design: route intravenous, time 1 min, dose 2 mg/kg. Particulars: in vivo.
The nature of data set [16]: Bioavailability in REC dosed human. Particulars: in vivo. It is filed as ADME, organism-based.
Data set [17] in a line: Protein binding in human plasma. It is filed as ADME, cell-free. Particulars: read-out: PPB (converted).
The target in data set [18] is Glutamate NMDA receptor. Put plainly: Inhibition of NMDAR-mediated excitatory postsynaptic potential in Sprague-Dawley rat hippocampus CA1 region by electrophysiology. On the set-up: species or system Brain.
Data set [19] deals with Glutamate NMDA receptor. Nature of the data set: Displacement of [3H]-MK801 from NMDA receptor in Sprague-Dawley rat cerebellum by liquid scintillation counting method. It is filed as tissue-based.
A short description of data set [20]: Aqueous solubility of the compound. It is filed as physicochemical.
The target in data set [21] is Glutamate NMDA receptor. Put plainly: Displacement of [3H]-MK801 from NMDA receptor in rat brain membranes incubated for 45 mins in presence of Mg2+ by scintillation counting method. It is filed as cell membranes, Membrane.
Data set [22] in a line: Bioavailability in iv dosed human. It counts as ADME, organism-based. As to conditions: in vivo.
Data set [23] concerns the target Glutamate NMDA receptor. Nature of the data set: Displacement of [3H]-MK801 from NMDA receptor in rat spinal cord incubated for 45 mins by liquid scintillation spectrometry. It is filed as tissue-based.
Data set [24] deals with Homo sapiens. Put plainly: Anesthetic activity in SC dosed human assessed as time duration for onset of action. It counts as functional.
Data set [25] in a line: Displacement of [3H]-MK801 from NMDA receptor in Dunkin-Hartley guinea pig brain homogenate incubated for 45 mins by liquid scintillation spectrometry. It is filed as tissue-based, Cavia porcellus.
The target of data set [26] is Glutamate NMDA receptor. Nature of the data set: Displacement of [3H]-TCP from NMDA receptor in rat brain membranes incubated for 45 mins in presence of Mg2+ by scintillation counting method. It counts as cell membranes, Membrane.
Data set [27] concerns the target Glutamate NMDA receptor. Nature of the data set: Displacement of [3H]-MK801 from NMDA receptor in Sprague-Dawley rat cortex incubated for 2 hrs in presence of Mg2+ by scintillation counting method. It is filed as tissue-based.
A short description of data set [28]: Bioavailability in IN dosed human. It is filed as ADME, organism-based. As to conditions: in vivo, inhaled or intranasal.
Data set [29] concerns the target Glutamate NMDA receptor. Nature of the data set: Displacement of [3H]-MK801 from NMDA receptor in Sprague-Dawley rat cerebral cortex by liquid scintillation counting method. It is filed as tissue-based.
Data set [30] deals with Glutamate NMDA receptor. Put plainly: Displacement of [3H]-MK801 from NMDA receptor in rat brain membranes incubated for 60 mins in presence of Mg2+ by liquid scintillation counting method. It counts as cell membranes, Membrane.
The target in data set [31] is Glutamate [NMDA] receptor. Nature of the data set: Displacement of [3H]-MK801 from NMDA receptor in human cortex incubated for 2 hrs in presence of Mg2+ by scintillation counting method. It is filed as tissue-based.
For data set [32], the target named is Glutamate NMDA receptor; Grin1/Grin2a (Rattus norvegicus, UniProt P35439+Q00959). Put plainly: Displacement of [3H]-MK801 from rat brain GluN1/GluN2A expressed in HEK293 cells. It counts as cell-based.
Data set [33] deals with Glutamate NMDA receptor. Put plainly: Displacement of [3H]-MK801 from NMDA receptor in Sprague-Dawley rat brain synaptic membrane incubated for 60 mins by liquid scintillation counting method. It is filed as cell membranes.
The target of data set [34] is Glutamate NMDA receptor. Nature of the data set: Displacement of [3H]-MK801 from NMDA receptor in rat forebrain homogenate incubated for 2 hrs in presence of Mg2+ by liquid scintillation counting method. It counts as tissue-based.
Data set [35] concerns the target Glutamate [NMDA] receptor. Put plainly: Displacement of [3H]-MK801 from NMDA receptor in human frontal cortex in presence of Mg2+ by scintillation counting method. It counts as tissue-based.
Data set [36] can be described thus: Elimination half life in human. It is filed as ADME. As to conditions: read-out: beta t1/2 (converted).
Data set [37] concerns Homo sapiens. Put plainly: Anesthetic activity in IM dosed human assessed as time duration for onset of action. It is filed as functional.
In data set [38] the test system is Homo sapiens. Nature of the data set: Anesthetic activity in po dosed human assessed as time duration of action. It counts as functional.
The nature of data set [39]: Elimination half life in Wistar rat at 20 mg/kg, iv by LC-MS analysis. Particulars: in vivo, read-out: beta t1/2 (converted). It counts as ADME, organism-based.
The nature of data set [40]: Drug elimination in human urine assessed as metabolically unchanged compound. It counts as ADME. Particulars: read-out: Drug excretion.
A short description of data set [41]: Displacement of [3H]-MK801 from NMDA receptor in ICR Harlan mouse brain homogenate incubated for 45 mins by liquid scintillation spectrometry. It is filed as tissue-based.
Data set [42] deals with Glutamate NMDA receptor. Put plainly: Displacement of [3H]-MK801 from NMDA receptor in rat brain membranes incubated for 2 hrs in presence of Mg2+ by radioligand binding assay. It is filed as cell membranes, Membrane.
Data set [43] in a line: Bioavailability in human at 0.5 mg/kg, IM. It is filed as ADME, organism-based. Particulars: in vivo.
Data set [44] relates to Homo sapiens. Nature of the data set: Anesthetic activity in IM dosed human assessed as time duration of action. It counts as functional.
Data set [45] has as its target Glutamate NMDA receptor. Put plainly: Displacement of [3H]-MK801 from NMDA receptor in rat brain membranes incubated for 2 hrs in presence of Mg2+/glumate/glycine by radioligand binding assay. It is filed as cell membranes, Membrane.

The Ki is the dissociation constant of the complex between target and ligand, obtained from inhibition or displacement. For orientation: solubility means the dissolved amount per volume that the medium holds. As usually defined, the bioavailability is dose-corrected exposure relative to a reference, in per cent. A low value points to little systemic uptake. As usually defined, the IC50 is the point on the concentration scale where inhibition reaches its midpoint.

Values after ≈ are worked out from the molar mass of the structure shown.

Chain of Glutamate NMDA receptor; Grin1/Grin2b (Q00960 whole entry, other chains not shown): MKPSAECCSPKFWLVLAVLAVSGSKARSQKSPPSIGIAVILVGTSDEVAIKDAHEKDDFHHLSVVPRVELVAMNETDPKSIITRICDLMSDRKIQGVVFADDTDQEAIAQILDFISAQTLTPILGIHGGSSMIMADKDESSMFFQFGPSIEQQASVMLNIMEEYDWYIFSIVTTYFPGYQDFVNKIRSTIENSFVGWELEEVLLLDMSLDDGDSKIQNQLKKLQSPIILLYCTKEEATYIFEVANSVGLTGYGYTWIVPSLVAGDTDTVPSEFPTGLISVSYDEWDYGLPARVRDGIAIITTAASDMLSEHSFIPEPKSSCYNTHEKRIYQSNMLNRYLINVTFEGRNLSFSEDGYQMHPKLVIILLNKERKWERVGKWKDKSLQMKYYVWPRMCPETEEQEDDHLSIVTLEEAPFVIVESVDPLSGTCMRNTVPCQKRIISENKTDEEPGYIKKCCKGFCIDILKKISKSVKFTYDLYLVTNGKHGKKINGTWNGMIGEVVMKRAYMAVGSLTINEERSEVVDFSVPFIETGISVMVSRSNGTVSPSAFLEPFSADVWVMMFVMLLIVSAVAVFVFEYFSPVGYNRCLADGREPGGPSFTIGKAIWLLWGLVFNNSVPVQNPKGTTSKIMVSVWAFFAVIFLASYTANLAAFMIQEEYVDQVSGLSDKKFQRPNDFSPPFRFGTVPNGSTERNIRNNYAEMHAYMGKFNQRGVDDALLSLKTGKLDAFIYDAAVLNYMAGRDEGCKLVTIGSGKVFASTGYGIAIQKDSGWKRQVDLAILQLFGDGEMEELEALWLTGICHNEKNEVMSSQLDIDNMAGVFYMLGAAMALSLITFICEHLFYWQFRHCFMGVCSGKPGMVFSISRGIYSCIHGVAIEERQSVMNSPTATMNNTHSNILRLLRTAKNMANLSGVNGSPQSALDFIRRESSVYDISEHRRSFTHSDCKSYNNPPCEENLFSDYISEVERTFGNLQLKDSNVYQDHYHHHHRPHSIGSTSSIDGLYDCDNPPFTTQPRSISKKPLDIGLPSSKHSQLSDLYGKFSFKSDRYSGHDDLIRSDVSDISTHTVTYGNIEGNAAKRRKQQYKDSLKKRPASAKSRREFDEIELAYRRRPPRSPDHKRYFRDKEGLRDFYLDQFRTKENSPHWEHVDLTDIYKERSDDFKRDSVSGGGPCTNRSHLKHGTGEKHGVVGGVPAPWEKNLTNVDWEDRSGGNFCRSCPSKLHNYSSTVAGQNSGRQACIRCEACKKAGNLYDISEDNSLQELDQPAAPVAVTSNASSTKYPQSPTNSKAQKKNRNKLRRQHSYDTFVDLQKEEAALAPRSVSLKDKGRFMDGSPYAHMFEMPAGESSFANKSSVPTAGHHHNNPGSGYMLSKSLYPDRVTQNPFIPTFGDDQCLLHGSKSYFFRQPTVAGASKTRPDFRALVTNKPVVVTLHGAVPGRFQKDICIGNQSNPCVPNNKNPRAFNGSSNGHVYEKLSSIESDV
Chain of Glutamate NMDA receptor; GRIN1/GRIN2A (Q12879 whole entry, other chains not shown): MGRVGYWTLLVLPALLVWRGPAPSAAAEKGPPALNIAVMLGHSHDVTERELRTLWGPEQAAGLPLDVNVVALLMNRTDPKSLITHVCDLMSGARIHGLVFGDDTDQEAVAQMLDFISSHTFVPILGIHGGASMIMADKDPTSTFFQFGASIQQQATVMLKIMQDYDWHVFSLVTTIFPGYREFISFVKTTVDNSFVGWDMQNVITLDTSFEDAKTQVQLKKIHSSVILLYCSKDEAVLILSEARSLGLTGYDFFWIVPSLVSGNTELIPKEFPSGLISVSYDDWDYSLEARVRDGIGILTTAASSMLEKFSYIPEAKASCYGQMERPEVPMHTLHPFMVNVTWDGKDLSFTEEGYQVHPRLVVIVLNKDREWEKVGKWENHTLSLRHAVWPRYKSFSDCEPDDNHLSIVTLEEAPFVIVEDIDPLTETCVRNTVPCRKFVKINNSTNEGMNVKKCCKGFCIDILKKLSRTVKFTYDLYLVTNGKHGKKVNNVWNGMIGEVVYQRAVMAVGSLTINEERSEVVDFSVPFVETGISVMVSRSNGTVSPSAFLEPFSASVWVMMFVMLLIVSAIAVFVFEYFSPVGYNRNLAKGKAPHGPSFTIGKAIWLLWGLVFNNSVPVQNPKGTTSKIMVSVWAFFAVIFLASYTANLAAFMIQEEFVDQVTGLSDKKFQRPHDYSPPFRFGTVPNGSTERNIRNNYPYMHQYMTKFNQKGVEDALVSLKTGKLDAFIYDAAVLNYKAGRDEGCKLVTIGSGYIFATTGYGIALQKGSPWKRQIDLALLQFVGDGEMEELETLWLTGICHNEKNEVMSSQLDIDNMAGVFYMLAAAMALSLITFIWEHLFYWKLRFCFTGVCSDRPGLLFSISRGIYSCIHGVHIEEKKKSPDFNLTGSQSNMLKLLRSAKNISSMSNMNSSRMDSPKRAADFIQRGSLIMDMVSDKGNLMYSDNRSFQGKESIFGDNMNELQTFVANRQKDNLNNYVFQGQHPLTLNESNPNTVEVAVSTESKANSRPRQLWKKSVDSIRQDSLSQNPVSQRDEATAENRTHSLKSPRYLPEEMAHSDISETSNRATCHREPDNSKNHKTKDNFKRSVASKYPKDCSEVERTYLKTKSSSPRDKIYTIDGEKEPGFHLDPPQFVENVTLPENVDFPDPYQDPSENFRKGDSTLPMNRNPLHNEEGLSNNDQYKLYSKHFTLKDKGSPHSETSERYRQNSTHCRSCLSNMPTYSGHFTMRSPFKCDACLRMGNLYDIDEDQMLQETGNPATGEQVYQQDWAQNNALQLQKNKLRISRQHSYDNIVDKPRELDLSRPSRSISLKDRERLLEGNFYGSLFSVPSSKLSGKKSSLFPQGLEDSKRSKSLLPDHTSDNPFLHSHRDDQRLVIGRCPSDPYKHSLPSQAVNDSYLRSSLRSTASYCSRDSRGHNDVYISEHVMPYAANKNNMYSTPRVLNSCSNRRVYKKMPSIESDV
Chain of Glutamate NMDA receptor; Grin1/Grin2a (Q00959 whole entry, other chains not shown): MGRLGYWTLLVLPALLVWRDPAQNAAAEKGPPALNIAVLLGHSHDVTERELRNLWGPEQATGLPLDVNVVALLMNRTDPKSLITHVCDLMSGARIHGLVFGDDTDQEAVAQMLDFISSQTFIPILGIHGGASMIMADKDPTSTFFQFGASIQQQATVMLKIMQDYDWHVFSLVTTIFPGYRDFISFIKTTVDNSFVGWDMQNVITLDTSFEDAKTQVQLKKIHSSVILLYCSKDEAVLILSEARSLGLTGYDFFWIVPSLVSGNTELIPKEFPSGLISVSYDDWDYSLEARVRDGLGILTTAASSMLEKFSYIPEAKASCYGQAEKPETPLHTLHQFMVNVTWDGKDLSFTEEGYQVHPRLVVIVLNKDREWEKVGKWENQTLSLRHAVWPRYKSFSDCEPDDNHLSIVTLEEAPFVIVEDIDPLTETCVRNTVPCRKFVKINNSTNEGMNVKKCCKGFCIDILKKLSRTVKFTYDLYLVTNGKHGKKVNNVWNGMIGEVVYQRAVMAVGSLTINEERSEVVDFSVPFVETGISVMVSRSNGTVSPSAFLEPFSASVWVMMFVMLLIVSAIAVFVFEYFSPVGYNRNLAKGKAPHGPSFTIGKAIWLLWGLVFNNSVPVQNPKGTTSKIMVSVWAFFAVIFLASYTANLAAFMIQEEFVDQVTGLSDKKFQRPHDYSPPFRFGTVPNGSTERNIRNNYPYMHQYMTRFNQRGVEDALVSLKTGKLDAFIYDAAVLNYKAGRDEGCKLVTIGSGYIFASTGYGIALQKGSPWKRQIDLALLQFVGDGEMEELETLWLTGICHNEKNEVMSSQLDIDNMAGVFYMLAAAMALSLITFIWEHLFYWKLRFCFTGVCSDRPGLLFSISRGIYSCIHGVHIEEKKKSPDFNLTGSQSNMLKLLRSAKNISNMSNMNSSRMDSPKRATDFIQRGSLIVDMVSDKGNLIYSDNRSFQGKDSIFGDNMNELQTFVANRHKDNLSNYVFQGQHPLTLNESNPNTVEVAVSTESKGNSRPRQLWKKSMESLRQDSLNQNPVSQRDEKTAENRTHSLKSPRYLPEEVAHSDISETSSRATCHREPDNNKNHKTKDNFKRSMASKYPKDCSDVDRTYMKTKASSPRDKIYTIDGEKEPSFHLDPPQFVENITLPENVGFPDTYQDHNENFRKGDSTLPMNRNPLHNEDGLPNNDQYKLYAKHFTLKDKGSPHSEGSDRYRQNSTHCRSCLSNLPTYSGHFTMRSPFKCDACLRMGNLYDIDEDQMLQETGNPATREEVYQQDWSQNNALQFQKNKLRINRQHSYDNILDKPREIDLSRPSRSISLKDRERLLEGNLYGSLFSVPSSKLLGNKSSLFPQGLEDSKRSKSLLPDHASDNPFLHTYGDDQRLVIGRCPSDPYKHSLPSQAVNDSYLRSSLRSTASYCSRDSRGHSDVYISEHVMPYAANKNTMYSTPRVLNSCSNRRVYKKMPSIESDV

For `N[C@]1(c2ccccc2Cl)CCCCC1=O`, the Ki came out at 1700 nM on Glutamate NMDA receptor [1] and 2250 nM at Glutamate NMDA receptor [2].

As to `CN[C@@]1(c2ccccc2Cl)CCCCC1=O`, the Cmax in data set [3] worked out at 7.93 µmol/kg. For the same molecule, the inhibition constant (Ki) at Glutamate NMDA receptor [1] is 1400 nM; at Glutamate NMDA receptor [2], 2570 nM.

As for `CN[C@]1(c2ccccc2Cl)CCCCC1=O` [ESKETAMINE], the Cmax in [3] amounted to 7.33 µmol/kg. For the same molecule, the Ki is 300 nM on Glutamate NMDA receptor [1] and 690 nM at Glutamate NMDA receptor [2].

Take `CNC1(c2ccccc2Cl)CCCCC1=O.Cl` (stereo not given) [KETAMINE HYDROCHLORIDE]: in data set [4], the solubility worked out at 200 mg/mL.

Regarding `CNC1(c2ccccc2Cl)CCCCC1=O` (stereo not given) [KETAMINE], the Ki (in data set [5]; in [6]; in [7]; on Glutamate NMDA receptor [9]; on Glutamate NMDA receptor [10]; in data set [13]) was 180 nM each time. Moreover, the Ki (at Glutamate NMDA receptor [19]; at Glutamate NMDA receptor [21]; on Glutamate NMDA receptor [23]; in data set [25]; at Glutamate NMDA receptor [26]; at Glutamate NMDA receptor [27]) was 180 nM in each case. Further, the inhibition constant Ki (on Glutamate NMDA receptor [29]; on Glutamate NMDA receptor [30]; in data set [31]; in data set [32]; on Glutamate NMDA receptor [33]; at Glutamate NMDA receptor [34]) was 180 nM throughout. Further, the Ki (in data set [35]; in data set [41]; on Glutamate NMDA receptor [42]; at Glutamate NMDA receptor [45]) was 180 nM each time. In addition, the bioavailability turned out to be 17% in data set [8]; 24% in [14]; 11% in data set [16]; 8% in [28]; 93% in data set [43]. For the same molecule, the Time with Homo sapiens [11] worked out at 15 min; in the data set on Homo sapiens [12] it was 5 min; in the data set with Homo sapiens [24], 15 min; in the data set on Homo sapiens [37] it was 1 min; with Homo sapiens [38], 4 h; with Homo sapiens [44], 0.5 h. Also, in data set [15], the Cmax came out at 7.6 µM. The fraction unbound in data set [17] is 0.88. The same molecule gave an IC50 against Glutamate NMDA receptor [18] of 10000 nM. For the same molecule, the concentration in solution in data set [20] (solubility) came to 0.046 mg/mL (≈ 193 µM). The molecule also yielded a F in data set [22] of 100%. For the same molecule, the values for the half-life in data set [36] and in data set [39] were 2 h and 8 h, respectively. Besides, the dose excreted in data set [40] is 2%.
